Laboratory results published in patent publication US20090286884A1, “Hops Beta-Acid Anti-Diabetic Composition” (priority 2004, published 2009).

System: normal human muscle myoblasts (HSMM)
Assay: 3H-deoxyglucose uptake into skeletal muscle cells
Format: cell-based
Settings: after 24 hrs incubation in the presence of various hops extracts
Protocol: All skeletal muscle cell strains used are skeletal muscle myoblast cells (purchased from Clonetics) with negative for HIV-I, hepatitis-B & C, mycoplasma, bacteria, yeast and fungi. This Skeletal Muscle Myoblast Cell System contains normal human muscle myoblasts (HSMM). The cell and media System can quickly generate HSMM cultures for the study of cellular development and differentiation, insulin uptake or resistance, or tissue repair. The Skeletal muscle cells were cultured on Cytostar 96-well cultured plate. Cells were labeled with 3H-deoxyglucose (50 μCi/ml, 4 μM) in the presence of 8 mM glucose. Radioactivity was counted on a Microbeta scintillation counter. In beta-acid treated cells (mixture of 65:25:10 of co-Lupulone: lupulone: ad-lupulone, Beta Tec, Washington, D.C.), kinetics of labeled deoxyglucose uptake was directly measured without washing. In order to avoid color quenching of quercetin treated cells, cells were washed with Hanks buffer and then the radioactivity was measured at end-point (18 hr). Error bars show SD (n=3).

COc1cc(O)c(CC=C(C)C)c(O)c1C(=O)/C=C/c1ccc(O)cc1 [xanthohumol]
glucose uptake into muscle skeletal cells, enhancing effect: no enhancing effect
